Holding throughout (type): cell-based
In test [1] the target is T1, cholecystokinin receptors (Cavia porcellus, UniProt Q63931).
T1 construct: Isolated, strip preparations were prepared from gall-bladders removed from male Dunkin-Hartley guinea-pigs; from tissue; host or cells: guinea-pig gall-bladder strips
T1 sequence (Q63931 1-430): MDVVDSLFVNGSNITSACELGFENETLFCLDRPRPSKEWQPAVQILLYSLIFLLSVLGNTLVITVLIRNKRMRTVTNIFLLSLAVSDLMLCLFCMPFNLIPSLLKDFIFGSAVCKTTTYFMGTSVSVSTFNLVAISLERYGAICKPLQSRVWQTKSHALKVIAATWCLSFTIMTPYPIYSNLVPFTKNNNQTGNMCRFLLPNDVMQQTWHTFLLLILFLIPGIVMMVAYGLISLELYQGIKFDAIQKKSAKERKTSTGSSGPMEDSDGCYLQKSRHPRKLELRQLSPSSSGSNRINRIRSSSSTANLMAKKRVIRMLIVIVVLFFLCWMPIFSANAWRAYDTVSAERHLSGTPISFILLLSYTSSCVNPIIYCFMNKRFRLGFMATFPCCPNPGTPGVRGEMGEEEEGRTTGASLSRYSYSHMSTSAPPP
Kind of test: CCK-antagonist activity in isolated guinea-pig gall-bladder strip preparations. As to conditions: guinea-pig gall-bladder strips; CCK-8 as agonist; test compound incubated for 60 minutes; standard errors less than 5%. As for the experimental part: The compounds of the invention were also assayed for CCK-antagonist activity as follows:
Isolated, strip preparations were prepared from gall-bladders removed from male Dunkin-Hartley guinea-pigs (250-500 g body weight) according to the method of La Morte, W. W., et al., J.P.E.T., 217, (3), 638-644 (1981).
The complete gall-bladder is removed and opened along the longitudinal axis. Strips measuring 3 mm in the longitudinal axis and 1 mm in the transverse axis are cut and then tied with cotton to stainless steel wires. The preparation is connected to a GRASS FTO3 isometric transducer under an initial loading tension of 1 g and is immersed in 20 mls of Krebs solution maintained at 37° C. and gassed with 95% O2 /5% CO2. The Krebs solution is as detailed above in connection with the fundus assay, except that the Ca^2+ concentration is decreased to 0.5 mM. After 30 mins the preparation is washed. Drug addition begins after an initial 90 min stabilisation period. Responses are measured as changes in tension from that immediately prior to any drug addition. Single cumulative agonist concentration-effect curves, using CCK-8 as agonist, are obtained on each preparation in the absence and presence of test compound which has been incubated for 60 minutes. The antagonist activity of the test compound is estimated and expressed as the negative logarithm (base 10) of the equilibrium dissociation constants (pK8) using the modifications of standard competitive analysis described by Black et al., Br. J. Pharmacol.,86,571-579, (1985) and Shankley et al., Br. J. Pharmacol.,94,264-274 (1988).

The target in test [2] is T2, gastrin receptor (Cavia porcellus, UniProt H0VZC5).
T2 construct: Strips of muscle (approximately 2.5 cm by 1 cm) are removed from the proximal area of the stomach; from tissue; host or cells: guinea-pig proximal stomach (fundus) muscle strips
T2 sequence (H0VZC5 1-426): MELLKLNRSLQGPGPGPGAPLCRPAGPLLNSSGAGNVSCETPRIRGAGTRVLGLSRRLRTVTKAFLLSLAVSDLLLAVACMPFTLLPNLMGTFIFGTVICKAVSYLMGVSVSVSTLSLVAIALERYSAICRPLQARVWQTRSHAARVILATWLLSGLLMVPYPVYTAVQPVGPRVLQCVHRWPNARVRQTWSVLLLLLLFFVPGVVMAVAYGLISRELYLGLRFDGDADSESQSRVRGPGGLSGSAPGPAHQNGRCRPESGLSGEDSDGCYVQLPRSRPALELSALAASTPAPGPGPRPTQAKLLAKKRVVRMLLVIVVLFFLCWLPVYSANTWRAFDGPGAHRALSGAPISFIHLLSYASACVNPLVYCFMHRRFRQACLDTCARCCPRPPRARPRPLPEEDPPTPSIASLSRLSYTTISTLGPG
Kind of test: guinea-pig fundus assay for gastrin activity (stomach muscle strips). The note with it: 10^-8 M devazepide present, 60 minute equilibration, agonist e.g. pentagastrin, standard errors less than 5%. As for the experimental part: The compounds were assayed for gastrin activity using the mouse stomach assay as described by Black, J. W. and Shankley, N. P., Br. J. Pharmacol., 86, 571-579, (1985), and also in the guinea-pig fundus assay, as follows:
The stomach is removed from a male Dunkin-Hartley guinea-pig (250-500 g), and Krebs solution is injected through a hypodermic needle under the top stomach muscle layer. The composition (mM) of the Krebs solution is as follows: Na^+ 143, K^+ 5.9, Ca^2+ 2.5, Mg^2+ 1.2, Cl^- 128, H2 PO4^- 2.2, HCO3^- 24.9, SO4^2- 1.2, dextrose 10. Strips of muscle (approximately 2.5 cm by 1 cm) are removed from the proximal area of the stomach (one from each side) and tied with cotton thread to isotonic transducers under an initial loading tension of 0.35 g.
The preparation is immersed in 20 mls of Krebs solution containing 10^-8 M devazepide (25 μl 2×10^-3 M devazepide/100% DMF solution in 5 dm^3 Krebs) and gassed with 95% O2 /5% CO2. The function of the devazepide is to block possible effects at CCK receptors present in the tissue.
The preparation is washed twice over a 60 minute period then 10 mM KCl is added. At 90 minutes, test compounds (ie. potential antagonists) are added and a further 60 minute equilibration period allowed. After this time, cumulative agonist (e.g. pentagastrin) dose-response curves are constructed.

Test [3] addresses T3, gastrin receptor (Mus musculus, UniProt P56481).
T3 construct: assayed for gastrin activity using the mouse stomach assay; from tissue; host or cells: isolated mouse stomach
T3 sequence (P56481 1-453): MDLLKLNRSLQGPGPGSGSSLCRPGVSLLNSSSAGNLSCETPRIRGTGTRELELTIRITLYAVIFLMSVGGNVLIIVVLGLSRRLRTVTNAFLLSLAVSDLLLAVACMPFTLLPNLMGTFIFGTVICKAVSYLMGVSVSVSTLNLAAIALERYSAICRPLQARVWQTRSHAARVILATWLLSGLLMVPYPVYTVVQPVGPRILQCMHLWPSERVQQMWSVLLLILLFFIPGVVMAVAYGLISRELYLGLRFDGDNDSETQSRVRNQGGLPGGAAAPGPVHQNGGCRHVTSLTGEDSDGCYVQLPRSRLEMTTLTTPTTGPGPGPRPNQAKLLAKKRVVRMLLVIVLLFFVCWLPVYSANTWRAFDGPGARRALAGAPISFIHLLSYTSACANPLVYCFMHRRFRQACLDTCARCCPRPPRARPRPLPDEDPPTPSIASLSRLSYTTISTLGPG
Kind of test: mouse stomach assay for gastrin activity (isolated stomach, acid secretion). The note with it: for Acid seretion at 10^-5 M test compound, relative to pentagastrin (%): mouse stomach, NS = not significant. The method, then:
The compounds were assayed for gastrin activity using the mouse stomach assay as described by Black, J. W. and Shankley, N. P., Br. J. Pharmacol., 86, 571-579, (1985), and also in the guinea-pig fundus assay, as follows: […]

[4] abbreviates: isolated mouse stomach assay, gastrin antagonism, standard errors less than 5%.

Non-standard residues stand in square brackets, D forms with d. Residues, ends and D or L forms follow the SMILES beside them. *: point of attachment. 1Nal = N[C@@H](Cc1cccc2ccccc12)C(=O)O; 2Nal = N[C@@H](Cc1ccc2ccccc2c1)C(=O)O; d1Nal = N[C@H](Cc1cccc2ccccc12)C(=O)O; d2Nal = N[C@H](Cc1ccc2ccccc2c1)C(=O)O; Phe(ol) = N[C@H](CO)Cc1ccccc1; Boc = CC(C)(C)OC(=O)*; For = O=C*

Turning to `CC(C)(C)OC(=O)N[C@@H](Cc1c[nH]c2ccccc12)C(=O)N[C@@H](Cc1ccc2ccccc2c1)C(=O)N[C@@H](CC(=O)O)C(=O)N[C@@H]1CCC[C@H]1c1ccccc1` (single isomer, unassigned; diastereomer 2) [Example 32, N-t-Butyloxycarbonyl-L-tryptophyl-L-3-(2-naphthyl)alanyl-L-aspartyl-trans-2-phenylcyclopentylamide (diastereomer 2)], the negative logarithm of the KB (pKB) in test [1] is given as 6.6; in test [2], 6.1.

In the case of `CC(C)(C)OC(=O)N[C@@H](Cc1c[nH]c2ccccc12)C(=O)N[C@H](Cc1ccc2ccccc2c1)C(=O)N[C@@H](CC(=O)O)C(=O)N[C@@H](Cc1ccccc1)C(N)=O` [Example 3, N-t-Butyloxycarbonyl-L-tryptophyl-D-3-(2-naphthyl)alanyl-L-aspartyl-L-phenylalaninamide] (Boc-W[d2Nal]DF-NH2), the Kb in test [2] is 2510 nM.

Turning to `CC(C)(C)OC(=O)N[C@@H](Cc1c[nH]c2ccccc12)C(=O)N[C@@H](Cc1cccc2ccccc12)C(=O)N[C@@H](CC(=O)O)C(=O)N[C@@H](Cc1ccccc1)C(N)=O` [Example 4, N-t-Butyloxycarbonyl-L-tryptophyl-L-3-(1-naphthyl)alanyl-L-aspartyl-L-phenylalaninamide] (Boc-W[1Nal]DF-NH2), in test [2], the Kb is 1580 nM.

For `CC(C)(C)OC(=O)N[C@@H](Cc1c[nH]c2ccccc12)C(=O)N[C@@H](Cc1ccc2ccccc2c1)C(=O)N[C@@H](CC(=O)O)C(=O)N[C@H](CO)Cc1ccccc1` [Example 9, N-t-Butyloxycarbonyl-L-tryptophyl-L-3-(2-naphthyl)alanyl-L-aspartyl-L-phenylalaninol] (Boc-W[2Nal]D[Phe(ol)]), the Kb in test [1] was 1260 nM; in test [2] it was 2510 nM.

Turning to `CC(C)(C)OC(=O)N[C@@H](Cc1c[nH]c2ccccc12)C(=O)N[C@@H](Cc1ccc2ccccc2c1)C(=O)N[C@H](CC(=O)O)C(=O)N[C@@H](Cc1ccccc1)C(N)=O` [Example 12, N-t-Butyloxycarbonyl-L-tryptophyl-L-3-(2-naphthyl)alanyl-D-aspartyl-L-phenylalaninamide] (Boc-W[2Nal][dD]F-NH2), the Kb in test [1] was 39.8 nM; in test [2], 3160 nM.

Take `NC(=O)[C@H](Cc1ccccc1)NC(=O)[C@H](CC(=O)O)NC(=O)[C@H](Cc1ccc2ccccc2c1)NC(=O)[C@H](Cc1c[nH]c2ccccc12)NC=O` [Example 15, N-Formyl-L-tryptophyl-L-3-(2-naphthyl)alanyl-L-aspartyl-L-phenylalaninamide] (For-W[2Nal]DF-NH2): the Kb was 631 nM in test [1] and 5010 nM in test [2].

In the case of `CC(C)(C)OC(=O)N[C@@H](Cc1c[nH]c2ccccc12)C(=O)N[C@H](Cc1cccc2ccccc12)C(=O)N[C@@H](CC(=O)O)C(=O)N[C@@H](Cc1ccccc1)C(N)=O` [Example 24, N-t-Butyloxycarbonyl-L-tryptophyl-D-3-(1-naphthyl)alanyl-L-aspartyl-L-phenylalaninamide] (Boc-W[d1Nal]DF-NH2), the Kb is 316 nM in test [1] and 251 nM in test [3] (isolated mouse stomach assay, gastrin antagonism, standard errors less than 5%, read-out: pKB mouse stomach (converted)). For the same compound, in test [3], the “Acid seretion at 10^-5 M test compound, relative to pentagastrin (%)” value (from here on “Acid seretion … relative to pentagastrin (%)”) turned out to be 50%.

Take `CC(C)(C)OC(=O)N[C@@H](Cc1c[nH]c2ccccc12)C(=O)N[C@@H](Cc1ccc2ccccc2c1)C(=O)N[C@@H](CC(=O)O)C(=O)N1CCc2ccccc2C1` [Example 26, N-[N-t-Butyloxycarbonyl-L-tryptophyl-L-3-(2-naphthyl)alanyl-L-aspartyl]-1,2,3,4-tetrahydroisoquinolinamide]: the negative logarithm of the KB (pKB) in test [1] came out at 6.6; in test [2] it was 5.5.

With `CCCCOC(=O)N[C@@H](Cc1c[nH]c2ccccc12)C(=O)N[C@@H](Cc1ccc2ccccc2c1)C(=O)N[C@@H](CC(=O)O)C(=O)NCCc1ccccc1C(F)(F)F` [Example 27, N-Butyloxycarbonyl-L-tryptophyl-L-3-(2-naphthyl)alanyl-L-aspartyl-2-trifluoromethylphenethylamide], the values for the pKB in test [1] and in test [2] were 6.5 and 5.8, respectively.

For the compound `COc1ccc(CCNC(=O)[C@H](CC(=O)O)NC(=O)[C@H](Cc2ccc3ccccc3c2)N(C)C(=O)[C@H](Cc2c[nH]c3ccccc23)NC(=O)OC(C)(C)C)cc1` [Example 59, N-t-Butyloxycarbonyl-L-tryptophyl-N-methyl-L-3-(2-naphthyl)alanyl-L-aspartyl-4-methoxyphenethylamide], the negative logarithm of the KB (pKB) in test [1] was 6.7. This compound displayed a pKB mouse stomach in test [3] (setting [4]) of 5.3. Further, in test [3], the “Acid seretion … relative to pentagastrin (%)” value was 20%.

For `CC(C)(C)OC(=O)N[C@@H](Cc1cn(C=O)c2ccccc12)C(=O)N[C@@H](Cc1ccc2ccccc2c1)C(=O)N[C@@H](CC(=O)O)C(=O)N[C@@H](Cc1ccccc1)C(N)=O` [Example 60, N-t-Butyloxycarbonyl-L-N^in-formyltryptophyl-L-3-(2-naphthyl)alanyl-L-aspartyl-L-phenylalaninamide] (Boc-W(For)[2Nal]DF-NH2), the negative logarithm of the KB (pKB) in test [1] is reported as 6.4. Further, the pKB mouse stomach in test [3] (setting [4]) is 5.3. The “Acid seretion … relative to pentagastrin (%)” value in test [3] was 20%.

“N-t-Butyloxycarbonyl-L-tryptophyl-L-3-(2-naphthyl)alanyl-L-aspartyl]-3-azaspiro[5.4]decylamide [Example 62]”: the negative logarithm of the KB (pKB) in test [2] is on record as 5.6.

For the compound “N-t-benzyloxycarbonyl-β-alanyl-L-tryptophyl-L-3-(2-naphthyl)alanyl-L- aspartyl-L-phenylalaninamide [Example 23]”, in test [1], the pKB is 5.9. In test [3] (setting [4]), the pKB mouse stomach was 5.5. Besides, in test [3], the “Acid seretion … relative to pentagastrin (%)” value was determined as 40%.

The term pKB denotes −log10 of the KB, conventionally taken in molar units. Read a high pKB as a low KB.

The record behind these values is patent US5486597A, “Tetrapeptide derivatives and analogues” (James Black Foundation Limited, priority 1990, dated 1996).
